The values that follow come from patent EP0179667B1, “N6-substituted adenosines” (priority 1984, dated 1986).

For data set [1], the system named is Swiss-Webster male mice. As to the kind of experiment: Mouse Activity and Screen Test Procedure (MAST): screen test (ST). It is filed as in vivo. To be noted: one hour postinjection. The text has this: The compounds of the invention are new chemical substances which are useful as pharmaceutical agents for the treatment of psychoses. The antipsychotic activity of representative compounds of the invention was established by the Mouse Activity and Screen Test Procedrue (MAST) described below.
Nine unfasted Swiss-Webster male mice weighing 20-30 g equally divided into three groups for each drug dose to be tested. That is, data for each dose level was generated by three separated groups of three mice each.
A minimum of three dose levels (10, 30, and 100 mg/kg) are tested for each drug. Treatments are administered intraperitoneally one hour prior to testing. All dosages are calculated as parent compound and given in volumes of 10 ml/kg. Compounds are dissolved or suspended in 0.2% Methocel. Control animals are injected with Methocel.
Testing: A two part testing procedure is started one hour postinjection. First, the screen test (ST) is performed (see Pharmac. Biochem. Behav. 6, 351-353, 1977). Briefly this test consists of placing mice on individual wire screens which are then rotated 180 degrees at the start of a 60 second observation period. The number of mice falling off the inverted screen is recorded.
Data: The data obtained from the screen test are expressed as percent of mice falling off the screen. Data derived from locomotor activity of drug treated mice are compared to the activity of vehicle treated animals and are expressed as percent inhibition of spontaneous locomotion. All percentages reported for inhibition of locomotion (LI) are based upon data accumulated for one hour. Both phases of testing are graded: A=60-100%; G=31-59%; and N=0-30%. An overall dose rating is obtained by the following criteria:
LAD refers to the lowest dose at which an A rating is achieved. […] Utilizing this procedure, an overall dose rating of A was obtained for the noted compound at the indicated dose. The compounds are identified in the Examples.

The test system of data set [2] is Swiss-Webster male mice. As to the kind of experiment: Mouse Activity and Screen Test Procedure (MAST): locomotor activity in actophotometer. In kind it is in vivo. The settings on record: one hour prior to testing. Here is the method: Nine unfasted Swiss-Webster male mice weighing 20-30 g equally divided into three groups for each drug dose to be tested. That is, data for each dose level was generated by three separated groups of three mice each. A minimum of three dose levels (10, 30, and 100 mg/kg) are tested for each drug. Treatments are administered intraperitoneally one hour prior to testing. All dosages are calculated as parent compound and given in volumes of 10 ml/kg. […] Control animals are injected with Methocel. […] The actophotometer consists of a cylindrical chamber whose center is occupied by another cylinder which contains the illumination for six photocells located on the perimeter of the chamber. Six light-beam interruptions equal one count. […] Data: The data obtained from the screen test are expressed as percent of mice falling off the screen. Data derived from locomotor activity of drug treated mice are compared to the activity of vehicle treated animals and are expressed as percent inhibition of spontaneous locomotion. All percentages reported for inhibition of locomotion (LI) are based upon data accumulated for one hour. […] An overall dose rating is obtained by the following criteria: LAD refers to the lowest dose at which an A rating is achieved. […] The compounds are identified in the Examples.

As for `COc1ccc2c(c1)C(Nc1ncnc3c1ncn3[C@@H]1O[C@H](CO)[C@@H](O)[C@H]1O)CCC2` (single isomer, unassigned) [Example 8], the Screen test failure in data set [1] (0.3 mg/kg intraperitoneally) came out at 11%; in data set [1] (1 mg/kg intraperitoneally), 11%; in data set [1] (3 mg/kg intraperitoneally), 11%; in data set [1] (10 mg/kg intraperitoneally) it was 22%; in data set [1] (30 mg/kg intraperitoneally), 65%. Also, the “Inhibition of mouse locomotor activity” value in data set [2] (0.3 mg/kg intraperitoneally) is 25%; in data set [2] (1 mg/kg intraperitoneally), 83%; in data set [2] (3 mg/kg intraperitoneally) it was 88%; in data set [2] (10 mg/kg intraperitoneally), 93%; in data set [2] (30 mg/kg intraperitoneally), 94%.
Regarding `OC[C@H]1O[C@@H](n2cnc3c(NC4CCCc5ccccc54)ncnc32)[C@H](O)[C@@H]1O` (stereo partly drawn) [Example 2, (R)-N^6-[1-Tetralinyl]-adenosine], the Screen test failure is reported as 0% in data set [1] (0.1 mg/kg intraperitoneally); 0% in data set [1] (0.3 mg/kg intraperitoneally); 11% in data set [1] (1 mg/kg intraperitoneally); 22% in data set [1] (3 mg/kg intraperitoneally); 33% in data set [1] (9.0 mg/kg intraperitoneally); 66% in data set [1] (30 mg/kg intraperitoneally). Moreover, the “Inhibition of mouse locomotor activity” value worked out at 25% in data set [2] (0.1 mg/kg intraperitoneally); 45% in data set [2] (0.3 mg/kg intraperitoneally); 79% in data set [2] (1 mg/kg intraperitoneally); 95% in data set [2] (3 mg/kg intraperitoneally); 97% in data set [2] (9.0 mg/kg intraperitoneally); 99% in data set [2] (30 mg/kg intraperitoneally).
For `CC1CCc2ccccc2C1Nc1ncnc2c1ncn2[C@@H]1O[C@H](CO)[C@@H](O)[C@H]1O` (stereo partly shown) [Example 4, N^6-[1-(2-Methyl)-tetralinyl]-adenosine], the Screen test failure amounted to 0% in data set [1] (0.03 mg/kg intraperitoneally); 0% in data set [1] (0.1 mg/kg intraperitoneally); 11% in data set [1] (0.3 mg/kg intraperitoneally); 77% in data set [1] (10 mg/kg intraperitoneally); 88% in data set [1] (30 mg/kg intraperitoneally); 77% in data set [1] (100 mg/kg intraperitoneally). Moreover, the “Inhibition of mouse locomotor activity” value is reported as 3% in data set [2] (0.03 mg/kg intraperitoneally); 1% in data set [2] (0.1 mg/kg intraperitoneally); 70% in data set [2] (0.3 mg/kg intraperitoneally); 97% in data set [2] (10 mg/kg intraperitoneally); 99% in data set [2] (30 mg/kg intraperitoneally); 99% in data set [2] (100 mg/kg intraperitoneally).
With `COc1ccc2c(c1)CCCC2Nc1ncnc2c1ncn2[C@@H]1O[C@H](CO)[C@@H](O)[C@H]1O` (stereo partly shown) [Example 6, N^6-[1-(6-Methoxy)-tetralinyl]-adenosine], the Screen test failure in data set [1] (1 mg/kg intraperitoneally) came out at 0%; in data set [1] (3 mg/kg intraperitoneally), 0%; in data set [1] (10 mg/kg intraperitoneally) it was 0%; in data set [1] (30 mg/kg intraperitoneally) it was 44%; in data set [1] (100 mg/kg intraperitoneally), 44%. Besides, the “Inhibition of mouse locomotor activity” value in data set [2] (1 mg/kg intraperitoneally) stood at 22%; in data set [2] (3 mg/kg intraperitoneally), 3%; in data set [2] (10 mg/kg intraperitoneally), 62%; in data set [2] (30 mg/kg intraperitoneally), 94%; in data set [2] (100 mg/kg intraperitoneally), 99%.
For `COc1cccc2c1CCCC2Nc1ncnc2c1ncn2[C@@H]1O[C@H](CO)[C@@H](O)[C@H]1O` (stereo partly shown) [Example 7, N^6-[5-Methoxy-1-aminotetralin]-adenosine], the Screen test failure is recorded as 0% in data set [1] (0.3 mg/kg intraperitoneally); 0% in data set [1] (1 mg/kg intraperitoneally); 11% in data set [1] (3 mg/kg intraperitoneally); 22% in data set [1] (10 mg/kg intraperitoneally); 66% in data set [1] (30 mg/kg intraperitoneally). Further, the “Inhibition of mouse locomotor activity” value in data set [2] (0.3 mg/kg intraperitoneally) was 7%; in data set [2] (1 mg/kg intraperitoneally) it was 22%; in data set [2] (3 mg/kg intraperitoneally) it was 91%; in data set [2] (10 mg/kg intraperitoneally), 97%; in data set [2] (30 mg/kg intraperitoneally), 99%.
For the compound `COc1cccc2c1CCC[C@@H]2Nc1ncnc2c1ncn2[C@@H]1O[C@H](CO)[C@@H](O)[C@H]1O` [Example 10, (S)-N^6-[5-methoxy-1-aminotetralin]-adenosine], the Screen test failure was determined as 11% in data set [1] (0.3 mg/kg intraperitoneally); 22% in data set [1] (1 mg/kg intraperitoneally); 22% in data set [1] (3 mg/kg intraperitoneally); 44% in data set [1] (10 mg/kg intraperitoneally); 66% in data set [1] (30 mg/kg intraperitoneally). Also, the “Inhibition of mouse locomotor activity” value in data set [2] (0.3 mg/kg intraperitoneally) was −19%; in data set [2] (1 mg/kg intraperitoneally), 65%; in data set [2] (3 mg/kg intraperitoneally), 88%; in data set [2] (10 mg/kg intraperitoneally) it was 95%; in data set [2] (30 mg/kg intraperitoneally), 97%.
As to `CC(=O)Oc1ccccc1C(=O)OC[C@H]1O[C@@H](n2cnc3c(NC4CCCc5ccccc54)ncnc32)[C@H](O)[C@@H]1O` (stereo partly shown) [Example 14, N^6-(1-tetralinyl)-5'-O-(O-acetylsalicoyl)adenosine], the Screen test failure in data set [1] (1 mg/kg intraperitoneally) was determined as 0%; in data set [1] (3 mg/kg intraperitoneally) it was 0%; in data set [1] (10 mg/kg intraperitoneally) it was 0%; in data set [1] (30 mg/kg intraperitoneally), 22%. The “Inhibition of mouse locomotor activity” value is 54% in data set [2] (1 mg/kg intraperitoneally), 69% in data set [2] (3 mg/kg intraperitoneally), 94% in data set [2] (10 mg/kg intraperitoneally) and 94% in data set [2] (30 mg/kg intraperitoneally).
With `CC(=O)OC[C@H]1O[C@@H](n2cnc3c(NC4CCCc5ccccc54)ncnc32)[C@H](O)[C@@H]1O` (stereo partly shown) [Example 15, N^6-(1-tetralinyl)-5'-acetyl-adenosine], the Screen test failure in data set [1] (0.3 mg/kg intraperitoneally) amounted to 11%; in data set [1] (1 mg/kg intraperitoneally), 22%; in data set [1] (3 mg/kg intraperitoneally), 22%; in data set [1] (10 mg/kg intraperitoneally) it was 55%; in data set [1] (30 mg/kg intraperitoneally) it was 55%. The “Inhibition of mouse locomotor activity” value is 46% in data set [2] (0.3 mg/kg intraperitoneally); 87% in data set [2] (1 mg/kg intraperitoneally); 96% in data set [2] (3 mg/kg intraperitoneally); 98% in data set [2] (10 mg/kg intraperitoneally); 99% in data set [2] (30 mg/kg intraperitoneally).
`OC[C@H]1O[C@@H](n2cnc3c(NC4CCCc5ccc(O)cc54)ncnc32)[C@H](O)[C@@H]1O` (stereo partly shown) [Example 17]: the Screen test failure is reported as 0% in data set [1] (3 mg/kg intraperitoneally), 0% in data set [1] (10 mg/kg intraperitoneally) and 22% in data set [1] (30 mg/kg intraperitoneally). Besides, the “Inhibition of mouse locomotor activity” value in data set [2] (3 mg/kg intraperitoneally) was found to be 44%; in data set [2] (10 mg/kg intraperitoneally) it was 88%; in data set [2] (30 mg/kg intraperitoneally), 91%.
On to `Cc1cc(C)c2c(c1)C(Nc1ncnc3c1ncn3[C@@H]1O[C@H](CO)[C@@H](O)[C@H]1O)CCC2` (stereo partly shown) [Example 18, N^6-[1-(5,7-dimethyl)-tetralinya]-adenosine], for which the Screen test failure in data set [1] (1 mg/kg intraperitoneally) was determined as 11%; in data set [1] (3 mg/kg intraperitoneally) it was 11%; in data set [1] (10 mg/kg intraperitoneally) it was 0%; in data set [1] (30 mg/kg intraperitoneally) it was 0%. Moreover, the “Inhibition of mouse locomotor activity” value in data set [2] (1 mg/kg intraperitoneally) stood at 44%; in data set [2] (3 mg/kg intraperitoneally) it was 73%; in data set [2] (10 mg/kg intraperitoneally), 91%; in data set [2] (30 mg/kg intraperitoneally) it was 96%.
`OC[C@H]1O[C@@H](n2cnc3c(NCC4CCc5ccccc54)ncnc32)[C@H](O)[C@@H]1O` (stereo partly shown) [Example 21, N^6-[2,3-dihydro-1H-inden-1-yl]methyladenosine]: the Screen test failure in data set [1] (0.3 mg/kg intraperitoneally) was 0%; in data set [1] (1 mg/kg intraperitoneally), 0%; in data set [1] (3 mg/kg intraperitoneally), 0%; in data set [1] (10 mg/kg intraperitoneally), 22%; in data set [1] (30 mg/kg intraperitoneally) it was 55%. The “Inhibition of mouse locomotor activity” value in data set [2] (0.3 mg/kg intraperitoneally) is recorded as −19%; in data set [2] (1 mg/kg intraperitoneally), 23%; in data set [2] (3 mg/kg intraperitoneally), 61%; in data set [2] (10 mg/kg intraperitoneally) it was 82%; in data set [2] (30 mg/kg intraperitoneally) it was 99%.
